Our source for the IC50 values is patent publication US20240343704A1, “HALO-SUBSTITUTED AMINO PYRIDINE COMPOUNDS AS INHIBITORS OF THE HAEMATOPOIETIC PROGENITOR KINASE 1 (HPK1)” (priority 2021, published 2024).

Experiment [1] concerns the target Lck (h) (Homo sapiens, UniProt P06239). Description: Lck Human  Kinase Enzymatic Radiometric Assay. The experiment is classed as biochemical. Conditions: for IC50: read-out: Lck IC50 nM Range*. In short, it runs like this: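 Substrate 33P-incorporation measured by scintillation counting after spotting on P30 filtermat and phosphoric acid washes. Human Lck reacted 40 min at RT in 50 mM Tris pH 7.5 with 10 mM MgAcetate, [gamma-33P]-ATP, 250 uM Cdc2 peptide, 0.1 mM EGTA and 0.1 mM Na3VO4.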

Experiment [2] deals with T1, Recombinant (1-346) HPK1 (h) (Homo sapiens, UniProt Q92918).
T1 construct: Recombinant (1-346) HPK1 (h) is incubated with 8 mM MOPS pH 7.0
T1 sequence (Q92918 1-346): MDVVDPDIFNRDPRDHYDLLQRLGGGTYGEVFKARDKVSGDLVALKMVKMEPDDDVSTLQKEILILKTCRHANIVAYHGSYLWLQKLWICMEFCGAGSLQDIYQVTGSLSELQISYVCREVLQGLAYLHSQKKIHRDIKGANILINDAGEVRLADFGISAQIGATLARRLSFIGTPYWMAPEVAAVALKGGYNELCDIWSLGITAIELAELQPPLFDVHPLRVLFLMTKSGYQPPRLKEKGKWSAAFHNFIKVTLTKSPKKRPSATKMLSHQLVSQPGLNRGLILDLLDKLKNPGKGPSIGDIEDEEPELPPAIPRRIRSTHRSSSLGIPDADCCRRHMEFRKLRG
Description: HPK1 Human STE Kinase Enzymatic Radiometric Assay. The experiment is classed as biochemical. Conditions: for IC50: read-out: HPK1 IC50 nM Range*. The procedure: A stock solution of 10 mM of test compound is prepared in DMSO. The compound plate was prepared by 3-fold and 9-point serial dilutions. […] The reaction is initiated by The addition of the Mg/ATP mix. After incubation for 40 minutes at RT, the reaction is stopped by the addition of phosphoric acid to a concentration of 0.5%.

pIC50: −log10 of the molar value. Where two headings read alike, the source gives them in different places. Where only a bound is given, the exact number is not on record here.

Chain of Lck (h) (P06239 whole entry): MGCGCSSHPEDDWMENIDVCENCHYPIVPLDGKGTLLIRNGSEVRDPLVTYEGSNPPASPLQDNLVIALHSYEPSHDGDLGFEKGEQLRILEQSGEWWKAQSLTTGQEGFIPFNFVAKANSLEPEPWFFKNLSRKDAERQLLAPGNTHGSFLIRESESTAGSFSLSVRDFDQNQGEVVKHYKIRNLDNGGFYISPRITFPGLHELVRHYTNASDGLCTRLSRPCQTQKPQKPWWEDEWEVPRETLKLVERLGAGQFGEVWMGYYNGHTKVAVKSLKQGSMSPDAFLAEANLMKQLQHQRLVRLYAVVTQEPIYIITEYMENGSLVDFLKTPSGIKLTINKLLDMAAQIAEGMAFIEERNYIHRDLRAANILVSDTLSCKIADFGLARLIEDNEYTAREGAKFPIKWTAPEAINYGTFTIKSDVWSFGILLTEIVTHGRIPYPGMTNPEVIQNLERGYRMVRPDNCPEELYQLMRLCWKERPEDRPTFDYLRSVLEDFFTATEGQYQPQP

Consider `COCCN(C)[C@@H]1CCN(c2ccc(-c3cc(-c4ccc5c(c4)CCNC5=O)c(N)nc3F)cc2)C1` [I-160, (R)-6-(2-amino-6-fluoro-5-(4-(3-((2-methoxyethyl)(methyl)amino)pyrrolidin-1-yl)phenyl)pyridin-3-yl)-3,4-dihydroisoquinolin-1(2H)-one], for which the IC50 is above 1000 nM in experiment [1] and 0.1 to 10 nM in experiment [2].

Regarding `CN(CC1CC1)[C@@H]1CCN(c2ccc(-c3cc(-c4ccc5c(c4)CCNC5=O)c(N)nc3F)cc2)C1` [I-161, (R)-6-(2-amino-5-(4-(3-((cyclopropylmethyl)(methyl)amino)pyrrolidin-1-yl)phenyl)-6-fluoropyridin-3-yl)-3,4-dihydroisoquinolin-1(2H)-one], the concentration for half-maximal inhibition (IC50) in experiment [1] fell in the range of 101 to 1000 nM; in experiment [2], 0.1 to 10 nM.

In the case of `CC(C)CN(C)C1CCN(c2ccc(-c3cc(-c4ccc5c(c4)CCNC5=O)c(N)nc3F)cc2)C1` (stereo not drawn) [I-162, 6-(2-amino-6-fluoro-5-(4-(3-(isobutyl(methyl)amino)pyrrolidin-1-yl)phenyl)pyridin-3-yl)-3,4-dihydroisoquinolin-1(2H)-one], the IC50 was above 1000 nM in experiment [1] and 0.1 to 10 nM in experiment [2].

As to `Nc1nc(F)c(-c2ccc(N3CCC(F)CC3)cc2)cc1-c1ccc2c(c1)CCNC2=O` [I-163, 6-(2-amino-6-fluoro-5-(4-(4-fluoropiperidin-1-yl)phenyl)pyridin-3-yl)-3,4-dihydroisoquinolin-1(2H)-one], the IC50 in experiment [1] was above 1000 nM; in experiment [2], 0.1 to 10 nM.

In the case of `CC(C)N1CCC(C)(c2ccc(-c3cc(-c4ccc5c(c4)CCNC5=O)c(N)nc3F)cc2)C1` (stereo not drawn) [I-164, 6-(2-amino-6-fluoro-5-(4-(1-isopropyl-3-methylpyrrolidin-3-yl)phenyl)pyridin-3-yl)-3,4-dihydroisoquinolin-1(2H)-one], the IC50 is above 1000 nM in experiment [1] and 0.1 to 10 nM in experiment [2].

As to `COCCN1C[C@@H]2C[C@]2(c2ccc(-c3cc(-c4ccc5c(c4)CCNC5=O)c(N)nc3F)cc2)C1` [I-165, 6-(2-amino-6-fluoro-5-(4-((1S,5R)-3-(2-methoxyethyl)-3-azabicyclo[3.1.0]hexan-1-yl)phenyl)pyridin-3-yl)-3,4-dihydroisoquinolin-1(2H)-one], the figures for the IC50 in experiment [1] and in experiment [2] were above 1000 nM and 0.1 to 10 nM, respectively.

As for `COCCN1CCC(c2ccc(-c3cc(-c4ccc5c(c4)CCNC5=O)c(N)nc3Cl)cc2)CC1` [I-166, 6-(2-amino-6-chloro-5-(4-(1-(2-methoxyethyl)piperidin-4-yl)phenyl)pyridin-3-yl)-3,4-dihydroisoquinolin-1(2H)-one], the IC50 in experiment [1] was above 1000 nM; in experiment [2] it was 11 to 100 nM.

Consider `COCCN1CCC(O)(c2ccc(-c3cc(-c4ccc5c(c4)CCNC5=O)c(N)nc3F)cc2)CC1` [I-167, 6-(2-amino-6-fluoro-5-(4-(4-hydroxy-1-(2-methoxyethyl)piperidin-4-yl)phenyl)pyridin-3-yl)-3,4-dihydroisoquinolin-1(2H)-one], for which the concentration for half-maximal inhibition (IC50) in experiment [1] is above 1000 nM; in experiment [2] it was 0.1 to 10 nM.

`Nc1nc(Cl)c(-c2ccc(N3CCN(CC(F)F)CC3)cc2)cc1-c1ccc2c(c1)CCNC2=O` [I-168, 6-(2-amino-6-chloro-5-(4-(4-(2,2-difluoroethyl)piperazin-1-yl)phenyl)pyridin-3-yl)-3,4-dihydroisoquinolin-1(2H)-one]: the half-inhibitory concentration (IC50) is above 1000 nM in experiment [1] and 11 to 100 nM in experiment [2].

Take `CC(C)N1CCN(c2ccc(-c3cc(-c4ccc5c(c4)CCNC5=O)c(N)nc3Cl)cc2)CC1` [I-169, 6-(2-amino-6-chloro-5-(4-(4-isopropylpiperazin-1-yl)phenyl)pyridin-3-yl)-3,4-dihydroisoquinolin-1(2H)-one]: the values for the IC50 in experiment [1] and in experiment [2] were above 1000 nM and 11 to 100 nM, respectively.

In the case of `CC(C)N1CCN(c2ccc(-c3cc(-c4cc5c(cc4F)C(=O)NCC5)c(N)nc3F)nc2)CC1` [I-170, 6-(6′-amino-2′-fluoro-5-(4-isopropylpiperazin-1-yl)-[2,3′-bipyridin]-5′-yl)-7-fluoro-3,4-dihydroisoquinolin-1(2H)-one], the IC50 in experiment [1] is above 1000 nM; in experiment [2] it was 0.1 to 10 nM.

For `CC(C)N1CC2C(F)(F)C2(c2ccc(-c3cc(-c4ccc5c(c4)CCNC5=O)c(N)nc3F)cc2)C1` (stereo not drawn) [I-171, 6-(2-amino-5-(4-(6,6-difluoro-3-isopropyl-3-azabicyclo[3.1.0]hexan-1-yl)phenyl)-6-fluoropyridin-3-yl)-3,4-dihydroisoquinolin-1(2H)-one], the IC50 in experiment [1] is above 1000 nM; in experiment [2], 0.1 to 10 nM.

Turning to `Nc1nc(F)c(-c2ccc(N3CCNCC3)cc2)cc1-c1cc2c(cc1F)C(=O)NCC2` [I-172, 6-(2-amino-6-fluoro-5-(4-(piperazin-1-yl)phenyl)pyridin-3-yl)-7-fluoro-3,4-dihydroisoquinolin-1(2H)-one 2,2,2-trifluoroacetate], the 50% inhibitory concentration (IC50) in experiment [1] was above 1000 nM; in experiment [2], 0.1 to 10 nM.

Take `CC(C)(C)OC(=O)N1CCC2(CC1)OCc1cc(-c3cc(-c4ccc5c(c4)CCNC5=O)c(N)nc3F)ccc1O2` [I-173, tert-butyl 6-(6-amino-2-fluoro-5-(1-oxo-1,2,3,4-tetrahydroisoquinolin-6-yl)pyridin-3-yl)-4H-spiro[benzo[d][1,3]dioxine-2,4′-piperidine]-1′-carboxylate]: the values for the pIC50 in experiment [1] and in experiment [2] were below 6.00 and 7.00 to 7.96, respectively.

`CC(C)(C)OC(=O)N1CCC2(CC1)CC(=O)c1cc(-c3cc(-c4ccc5c(c4)CCNC5=O)c(N)nc3F)ccc1O2` [I-174, tert-butyl 6-(6-amino-2-fluoro-5-(1-oxo-1,2,3,4-tetrahydroisoquinolin-6-yl)pyridin-3-yl)-4-oxospiro[chromane-2,4′-piperidine]-1′-carboxylate]: the results for the IC50 in experiment [1] and in experiment [2] were above 1000 nM and 11 to 100 nM, respectively.

As to `CC(C)(C)OC(=O)N1CCC2(CCc3cc(-c4cc(-c5ccc6c(c5)CCNC6=O)c(N)nc4F)ccc3O2)CC1` [I-175, tert-butyl 6-(6-amino-2-fluoro-5-(1-oxo-1,2,3,4-tetrahydroisoquinolin-6-yl)pyridin-3-yl)spiro[chromane-24′-piperidine]-1′-carboxylate], the figures for the IC50 in experiment [1] and in experiment [2] were above 1000 nM and 101 to 1000 nM, respectively.

For the compound `CC(C)(C)OC(=O)N1CCC(Oc2ccc(-c3cc(-c4ccc5c(c4)CCNC5=O)c(N)nc3F)cc2C#N)CC1` [I-176, tert-butyl 4-(4-(6-amino-2-fluoro-5-(1-oxo-1,2,3,4-tetrahydroisoquinolin-6-yl)pyridin-3-yl)-2-cyanophenoxy)piperidine-1-carboxylate], the IC50 in experiment [1] was above 1000 nM; in experiment [2] it was 11 to 100 nM.

Regarding `CC(C)(C)OC(=O)N1CCN(c2ccc(-c3cc(-c4ccc5c(c4)CCNC5=O)c(N)nc3F)cc2C(F)(F)F)CC1` [I-177, tert-butyl 4-(4-(6-amino-2-fluoro-5-(1-oxo-1,2,3,4-tetrahydroisoquinolin-6-yl)pyridin-3-yl)-2-(trifluoromethyl)phenyl)piperazine-1-carboxylate], the IC50 in experiment [1] was above 1000 nM; in experiment [2], 101 to 1000 nM.

In the case of `C[C@@H]1C[C@@H](Oc2ccc(-c3cc(-c4ccc5c(c4)CCNC5=O)c(N)nc3F)cc2)C[C@H](C)N1` [I-178, 6-(2-amino-5-(4-(((2S,4s,6R)-2,6-dimethylpiperidin-4-yl)oxy)phenyl)-6-fluoropyridin-3-yl)-3,4-dihydroisoquinolin-1(2H)-one], the concentration for half-maximal inhibition (IC50) was above 1000 nM in experiment [1] and 0.1 to 10 nM in experiment [2].

Consider `Nc1nc(F)c(-c2ccc(OC3CCNCC3)c(F)c2)cc1-c1ccc2c(c1)CCNC2=O` [I-179, 6-(2-amino-6-fluoro-5-(3-fluoro-4-(piperidin-4-yloxy)phenyl)pyridin-3-yl)-3,4-dihydroisoquinolin-1(2H)-one], for which the half-maximal inhibitory concentration (IC50) is above 1000 nM in experiment [1] and 0.1 to 10 nM in experiment [2].

In the case of `Nc1nc(F)c(-c2ccc(O[C@@H]3CCCNC3)cc2)cc1-c1cc2c(cc1F)C(=O)NCC2` [I-180, (R)-6-(2-amino-6-fluoro-5-(4-(piperidin-3-yloxy)phenyl)pyridin-3-yl)-7-fluoro-3,4-dihydroisoquinolin-1(2H)-one], the half-maximal inhibitory concentration (IC50) was above 1000 nM in experiment [1] and 11 to 100 nM in experiment [2].

Turning to `Nc1nc(F)c(-c2ccc3c(c2)COC2(CCNCC2)O3)cc1-c1ccc2c(c1)CCNC2=O` [I-181, 6-(2-amino-6-fluoro-5-(4H-spiro[benzo[d][1,3]dioxine-2,4′-piperidin]-6-yl)pyridin-3-yl)-3,4-dihydroisoquinolin-1(2H)-one], the negative-log IC50 (pIC50) in experiment [1] was below 6.00; in experiment [2], 8.00 to 10.00.

Turning to `Nc1nc(F)c(-c2ccc3c(c2)C(=O)CC2(CCNCC2)O3)cc1-c1ccc2c(c1)CCNC2=O` [I-182, 6-(6-amino-2-fluoro-5-(1-oxo-1,2,3,4-tetrahydroisoquinolin-6-yl)pyridin-3-yl)spiro[chromane-2,4′-piperidin]-4-one 2,2,2-trifluoroacetate], the results for the concentration for half-maximal inhibition (IC50) in experiment [1] and in experiment [2] were above 1000 nM and 0.1 to 10 nM, respectively.

For the compound `Nc1nc(F)c(-c2ccc3c(c2)CCC2(CCNCC2)O3)cc1-c1ccc2c(c1)CCNC2=O` [I-183, 6-(2-amino-6-fluoro-5-(spiro[chromane-2,4′-piperidin]-6-yl)pyridin-3-yl)-3,4-dihydroisoquinolin-1(2H)-one], the concentration for half-maximal inhibition (IC50) was above 1000 nM in experiment [1] and 0.1 to 10 nM in experiment [2].
